What was measured:
KC/IL-8 = assay: Serum KC/IL-8 in NZM mice; assay type: in vivo, mouse
Method: For the processing of serum samples for cytokine analysis, frozen plasma at −80° C. was thawed on ice, vortexed, and centrifuged for 10 minutes to remove debris and aggregates. A total of 25-50 μL of serum was used for Luminex® assays following the manufacturer's instructions. Ten different mouse cytokines were measured using the mouse cytokine 10-plex bead kit (Invitrogen, Carlsbad, Calif., no. LMC0001). Briefly, filter plates (Millipore, Billerica, Mass., no. MAIPSWU10), were pre-wet with 200 μL of wash solution (kit component) and 25 μL of beads were added per well. […]
(§1) Age mated, female, NZM or NZW/LacJ, mice were matured for the study of lupus nephritis for a total of 7 months or 210 days at which time urine was collected for proteinuria detection. Mice with 0.5-1.0 mg/ml of urine protein as determined by an optical density-based total protein precipitation assay and cross-checked for 30-300 mg/dl of protein as determined by a stick assay were considered proteinuria positive and selected for study entry. […] End-stage lupus nephritis was evaluated by histopathology and scored by a board certified pathologist for the assessment of total renal damage in diseased animals using the scoring method described by Smith et al (Smith, Dong et al. 2007). […]

CD38 = CD38 expression by flow cytometry in NZM mice; assay type: in vivo, mouse
Method: Antibodies used for flow cytometry consisted of anti-mouse CD138-APC (eBioscience, San Diego, Calif.), anti-mouse CD19-FITC (eBioscience, San Diego, Calif.), anti-mouse CD38-PE (eBioscience, San Diego, Calif.) and anti-mouse CD45R/B220-Cyc (eBioscience, San Diego, Calif.), Rat IgG1-APC isotype control (eBioscience, San Diego, Calif.), Rat IgG2a-PE isotype control (eBioscience, San Diego, Calif.). All samples were analyzed using an Accuri C6 Flow Cytometer. Complete media was used for all experiments involving the ex vivo culture of splenocytes for all Elispot experiments. […]
as §1

CN1CCN(c2cccc(Nc3nc4c(-c5ccc(S(C)(=O)=O)cc5)cccn4n3)c2)CC1 [COMPOUND A, [8-(4-methanesulfonyl-phenyl)-[1,2,4]triazolo[1,5-a]pyridin-2-yl]-[3-(4-methyl-piperazin-1-yl)-phenyl]-amine]
serum KC/IL-8 decrease compared to vehicle (KC/IL-8; 55 mg/kg): 78.0%
serum KC/IL-8 decrease compared to vehicle (KC/IL-8; 100 mg/kg): 72.9%
decrease in expression of CD38 (CD38; COMPOUND A 55 mg/kg): 66.6%
decrease in expression of CD38 (CD38; COMPOUND A 100 mg/kg): 74.2%

— patent publication US9023853B2, “Janus kinase 2 (JAK2) inhibitor for the treatment of lupus” (Cephalon, Inc., priority 2010, dated 2015)
